# Columns and labels:
# Format in all cases: cell-based
# [1] = system: Streptococcus mutans (GS5); experiment: growth turbidity, microorganism (18); conditions: 8 h, control 140
# Source text: (§1) They were testing microorganism (13): Escherichia coli HB101 (ATCC 33694); testing microorganism (14): Salmonella typhimurium LT-2 (ATCC 27106); testing microorganism (15): Pseudomonas aeruginosa (IFO 3080); testing microorganism (16): Staphylococcus aureus 3A (NCTC 8319); testing microorganism (17): Bacillus subtilis (IFO 3034); and testing microorganism (18): Streptococcus mutans (GS5; stored at National Institute of Health).
# (§2) The testing microorganisms were subjected to a seed culture overnight in an L-broth (1% tryptone, 0.5% yeast extract and […]; pH 7.0). The seed culture (5 μl) was inoculated to a medium to which 25-200 μg/ml of cyclopentenone was added to 5 ml of L-both and also to a medium to which nothing was added and a shake incubation was conducted at 37° C. to measure the growth. At the initiation of the incubation and also at eight hours thereafter, turbidity of the culture was measured using a Fuji Digital Turbidimeter (sold from Fuji Kogyo KK; manufactured by Akiyama Denki Seisakusho) under the condition that the adjusted scale was 82.3 and the growth of the tested microorganism was measured from the value (growth turbidity) obtained by deducting the turbidity at the initiation of incubation from that after eight hours. Incidentally, in the case of the testing microorganism (18), a brain heart infusion was used instead of L-broth.
# [2] = system: Pseudomonas aeruginosa (IFO 3080); experiment: growth turbidity, microorganism (15); conditions: 8 h, control 239
# Source text: as §1, §2
# [3] = system: Helicobacter pylori strains NCTC 11637 (ATCC 43504), 206 and 3401; experiment: MIC against Helicobacter pylori strains; conditions: pH 6.0, 37° C., 3-4 days, all strains tested, read-out: MIC (90% or more inhibition)
# Protocol: (4) As to Helicobacter pylori strains, a standard strain NCTC 11637 (ATCC 43504) and clinically isolated strains from human stomach (206 and 3401; both stored at Department of Bacteriology, Hyogo Medical College) were used. Each strain was subjected to a shake incubation at 37° C. under a slightly aerophilic condition using an Aneropack Campiro (manufactured by Mitsubishi Gas Chemical) in a Brucella Broth Medium (manufactured by BBL) containing 7% of horse serum (manufactured by Bio Whittaker). The microorganism in a logarithmic growth phase was diluted with a Brucella Broth and used for the test. A 24-well plate (manufacturedby Falcon) was used for the experiments. The cyclopentenone was charged at the rate of 0.1 ml (1,000 μg)/well, subjected to a two-step dilution using PBS and immobilized by adding 0.9 ml/well of a medium [a Brucella agar medium (pH 6.0) containing 7% of horse serum (manufactured by BBL)]. The Brucella agar medium was previously adjusted to pH 6.0 with HCl and was used for the experiments. Each microorganism was inoculated at the rate of about 10^4 /50 μl/well. […] The amount of a sample (μg/ml) showing 90% or more inhibition was defined as the MIC.
# [4] = system: Saccharomyces cerevisiae ATCC 9763; experiment: antimicrobial activity to fungi; conditions: high concentrations
smiles,measurement,setting,value
"O=C1C=CC(O)C1O (stereo not shown) [the cyclopentenone, 4,5-dihydroxy-2-cyclopenten-1-one]",Growth Turbidity,[1]; 25 μg/ml,133
same,Growth Turbidity,[1]; 50 μg/ml,130
same,Growth Turbidity,[1]; 100 μg/ml,34
same,Growth Turbidity,[1]; 200 μg/ml,6
same,Growth Turbidity,[2]; 25 μg/ml,2
same,Growth Turbidity,[2]; 50 μg/ml,0
same,Growth Turbidity,[2]; 100 μg/ml,0
same,Growth Turbidity,[2]; 200 μg/ml,0
same,MIC,[3],32 µg/mL
same,antimicrobial activity,[4],antimicrobial activity at high concentrations

# From patent publication US6087401A, “Cyclopentenones, process for preparing the same, and the use thereof” (Takara Shuzo Co., Ltd., priority 1996, dated 2000)
